# Source: paper PMC10879502, “Linking ATP and allosteric sites to achieve superadditive binding with bivalent EGFR kinase inhibitors” (Communications Chemistry, 2024)
# How the values were obtained:
# [1] = target: EPHA5 (Homo sapiens, UniProt P54756); assay: KINOMEscan; format: binding; conditions: 1 μM
# [2] = target: AKT3 (Homo sapiens, UniProt Q9Y243); assay: KINOMEscan; format: binding; conditions: 1 μM
# [3] = target: T1, CAMKK1 (Homo sapiens, UniProt Q8N5S9); assay: KINOMEscan; format: binding; conditions: 1 μM
# T1 construct: purchased Eurofins DiscoverX Corporation (KINOMEscan)
# [4] = target: T2, CSNK1D (Homo sapiens, UniProt P48730); assay: KINOMEscan; format: binding; conditions: 1 μM
# T2 construct: purchased Eurofins DiscoverX Corporation
# [5] = target: YANK2 (Homo sapiens, UniProt Q9NY57); assay: KINOMEscan; format: binding; conditions: 1 μM
# [6] = target: YSK4 (Homo sapiens, UniProt Q56UN5); assay: KINOMEscan; format: binding; conditions: 1 μM
# [7] = target: T3, MYO3B (Homo sapiens, UniProt Q8WXR4); assay: KINOMEscan; format: binding; conditions: 1 μM
# T3 construct: purchased Eurofins DiscoverX Corporation
# [8] = target: BIKE (Homo sapiens, UniProt Q9NSY1); assay: KINOMEscan; format: binding; conditions: 1 μM
# [9] = target: EPHA8 (Homo sapiens, UniProt P29322); assay: KINOMEscan; format: binding; conditions: 1 μM
# [10] = target: T4, MRCKA (Homo sapiens, UniProt Q5VT25); assay: KINOMEscan; format: binding; conditions: 1 μM
# T4 construct: purchased Eurofins DiscoverX Corporation
# [11] = target: T5, ABL1(M351T)-phosphorylated (Homo sapiens, UniProt P00519, M351T); assay: KINOMEscan; format: binding; conditions: 1 μM
# T5 construct: purchased Eurofins DiscoverX Corporation
# [12] = target: RSK3(Kin.Dom.1-N-terminal) (Homo sapiens, UniProt Q15349); assay: KINOMEscan; format: binding; conditions: 1 μM
# [13] = target: T6, MAP4K4 (Homo sapiens, UniProt O95819); assay: KINOMEscan; format: binding; conditions: 1 μM
# T6 construct: purchased Eurofins DiscoverX Corporation
# [14] = target: p38-alpha (Homo sapiens, UniProt Q16539); assay: KINOMEscan; format: binding; conditions: 1 μM
# [15] = target: T7, DMPK2 (Homo sapiens, UniProt Q6DT37); assay: KINOMEscan; format: binding; conditions: 1 μM
# T7 construct: purchased Eurofins DiscoverX Corporation
# [16] = target: CSK (Homo sapiens, UniProt P41240); assay: KINOMEscan; format: binding; conditions: 1 μM
# [17] = target: T8, FLT3(N841I) (Homo sapiens, UniProt P36888, N841I); assay: KINOMEscan; format: binding; conditions: 1 μM
# T8 construct: purchased Eurofins DiscoverX Corporation
# [18] = target: AURKC (Homo sapiens, UniProt Q9UQB9); assay: KINOMEscan; format: binding; conditions: 1 μM
# [19] = target: PIM2 (Homo sapiens, UniProt Q9P1W9); assay: KINOMEscan; format: binding; conditions: 1 μM
# [20] = target: ZAP70 (Homo sapiens, UniProt P43403); assay: KINOMEscan; format: binding; conditions: 1 μM
# [21] = target: EGFR (Homo sapiens, UniProt P00533); assay: KINOMEscan; format: binding; conditions: 1 μM
# [22] = target: T9, TRPM6 (Homo sapiens, UniProt Q9BX84); assay: KINOMEscan; format: binding; conditions: 1 μM
# T9 construct: purchased Eurofins DiscoverX Corporation
# [23] = target: PYK2 (Homo sapiens, UniProt Q14289); assay: KINOMEscan; format: binding; conditions: 1 μM
# [24] = target: T10, MAPKAPK2 (Homo sapiens, UniProt P49137); assay: KINOMEscan; format: binding; conditions: 1 μM
# T10 construct: purchased Eurofins DiscoverX Corporation
# [25] = target: SNARK (Homo sapiens, UniProt Q9H093); assay: KINOMEscan; format: binding; conditions: 1 μM
# [26] = target: ARK5 (Homo sapiens, UniProt O60285); assay: KINOMEscan; format: binding; conditions: 1 μM
# [27] = target: ERN1 (Homo sapiens, UniProt O75460); assay: KINOMEscan; format: binding; conditions: 1 μM
# [28] = Metabolic stability in human liver microsomes; format: in vitro ADME; conditions: up to 120 min
# Experimental: Pooled liver microsomes from humans (male) were purchased from Sekisui XenoTech, LLC, Kansas City, KS, USA. Metabolic stability assays were performed in the presence of an NADPH-regenerating system consisting of 5 mM glucose-6-phosphate, 5 U/mL glucose-6-phosphate dehydrogenase, and 1 mM NADP^+. Liver microsomes (20 mg/mL), NADPH-regenerating system, and 4 mM MgCl2·6 H2O in 0.1 M TRIS-HCl-buffer (pH 7.4) were preincubated for 5 min at 37 °C and 750 rpm on a shaker. The reaction was started by adding the preheated compound at 10 mM resulting in a final concentration of 0.1 mM. The reaction was quenched at selected time points (0, 10, 20, 30, 60, and 120 min) by pipetting 100 μL of internal standard (ketoprofen) at a concentration of 150 μM in acetonitrile. The samples were vortexed for 30 s and centrifuged (21910 relative centrifugal force, 4 °C, 20 min). The supernatant was used directly for LC-MS analysis. All compound incubations were conducted at least in triplicates. Additionally, a negative control containing BSA (20 mg/mL) instead of liver microsomes and a positive control using verapamil instead of compound were performed. A limit of 1% organic solvent during incubation was not exceeded. […]
# ARK5, sequence (O60285 whole entry): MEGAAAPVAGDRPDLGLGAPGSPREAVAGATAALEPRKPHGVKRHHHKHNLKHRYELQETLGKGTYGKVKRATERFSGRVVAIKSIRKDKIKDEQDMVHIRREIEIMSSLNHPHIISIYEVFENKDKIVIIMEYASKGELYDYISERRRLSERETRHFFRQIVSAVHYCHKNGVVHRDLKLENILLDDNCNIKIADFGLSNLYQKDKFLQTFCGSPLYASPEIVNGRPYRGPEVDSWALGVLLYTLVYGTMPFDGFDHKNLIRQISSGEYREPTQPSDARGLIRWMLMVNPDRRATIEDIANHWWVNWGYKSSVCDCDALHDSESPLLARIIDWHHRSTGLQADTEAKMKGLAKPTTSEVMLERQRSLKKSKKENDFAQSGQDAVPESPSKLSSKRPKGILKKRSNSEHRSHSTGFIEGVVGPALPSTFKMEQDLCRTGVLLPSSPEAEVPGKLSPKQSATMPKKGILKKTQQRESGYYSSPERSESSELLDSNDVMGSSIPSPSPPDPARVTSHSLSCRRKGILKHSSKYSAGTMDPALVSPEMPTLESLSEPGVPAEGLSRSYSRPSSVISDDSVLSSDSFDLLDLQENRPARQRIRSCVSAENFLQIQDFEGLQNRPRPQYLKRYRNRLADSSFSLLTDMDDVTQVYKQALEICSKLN
# BIKE, sequence (Q9NSY1 whole entry): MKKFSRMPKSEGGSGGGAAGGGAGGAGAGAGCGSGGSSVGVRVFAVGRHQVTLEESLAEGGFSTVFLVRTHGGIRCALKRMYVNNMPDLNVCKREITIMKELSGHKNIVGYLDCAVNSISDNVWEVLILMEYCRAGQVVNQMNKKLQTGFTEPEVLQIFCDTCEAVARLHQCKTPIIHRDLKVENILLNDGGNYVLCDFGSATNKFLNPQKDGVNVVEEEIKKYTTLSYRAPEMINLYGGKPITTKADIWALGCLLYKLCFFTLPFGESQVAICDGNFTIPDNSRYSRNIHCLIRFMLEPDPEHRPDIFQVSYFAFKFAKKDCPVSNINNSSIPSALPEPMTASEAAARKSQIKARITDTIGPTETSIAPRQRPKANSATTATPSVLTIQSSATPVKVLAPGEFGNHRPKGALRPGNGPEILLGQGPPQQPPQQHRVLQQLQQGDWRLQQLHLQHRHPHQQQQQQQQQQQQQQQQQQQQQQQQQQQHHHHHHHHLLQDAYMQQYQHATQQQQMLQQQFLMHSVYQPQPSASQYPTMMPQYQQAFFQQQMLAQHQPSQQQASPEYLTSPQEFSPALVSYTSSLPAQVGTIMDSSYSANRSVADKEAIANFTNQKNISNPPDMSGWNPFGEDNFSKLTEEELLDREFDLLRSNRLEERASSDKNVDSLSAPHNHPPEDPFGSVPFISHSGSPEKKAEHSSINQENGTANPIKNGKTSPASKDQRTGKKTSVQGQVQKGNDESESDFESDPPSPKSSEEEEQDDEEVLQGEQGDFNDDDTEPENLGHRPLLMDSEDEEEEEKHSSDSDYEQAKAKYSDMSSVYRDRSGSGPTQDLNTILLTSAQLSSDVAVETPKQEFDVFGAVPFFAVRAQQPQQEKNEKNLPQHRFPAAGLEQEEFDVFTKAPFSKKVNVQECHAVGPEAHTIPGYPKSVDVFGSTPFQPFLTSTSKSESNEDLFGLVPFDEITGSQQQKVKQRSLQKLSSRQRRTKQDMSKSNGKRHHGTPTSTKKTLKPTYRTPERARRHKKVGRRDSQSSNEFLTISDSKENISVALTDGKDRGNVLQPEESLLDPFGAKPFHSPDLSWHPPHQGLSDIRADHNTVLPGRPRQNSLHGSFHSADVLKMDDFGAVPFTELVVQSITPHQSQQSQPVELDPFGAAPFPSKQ
# T6 sequence (O95819 whole entry): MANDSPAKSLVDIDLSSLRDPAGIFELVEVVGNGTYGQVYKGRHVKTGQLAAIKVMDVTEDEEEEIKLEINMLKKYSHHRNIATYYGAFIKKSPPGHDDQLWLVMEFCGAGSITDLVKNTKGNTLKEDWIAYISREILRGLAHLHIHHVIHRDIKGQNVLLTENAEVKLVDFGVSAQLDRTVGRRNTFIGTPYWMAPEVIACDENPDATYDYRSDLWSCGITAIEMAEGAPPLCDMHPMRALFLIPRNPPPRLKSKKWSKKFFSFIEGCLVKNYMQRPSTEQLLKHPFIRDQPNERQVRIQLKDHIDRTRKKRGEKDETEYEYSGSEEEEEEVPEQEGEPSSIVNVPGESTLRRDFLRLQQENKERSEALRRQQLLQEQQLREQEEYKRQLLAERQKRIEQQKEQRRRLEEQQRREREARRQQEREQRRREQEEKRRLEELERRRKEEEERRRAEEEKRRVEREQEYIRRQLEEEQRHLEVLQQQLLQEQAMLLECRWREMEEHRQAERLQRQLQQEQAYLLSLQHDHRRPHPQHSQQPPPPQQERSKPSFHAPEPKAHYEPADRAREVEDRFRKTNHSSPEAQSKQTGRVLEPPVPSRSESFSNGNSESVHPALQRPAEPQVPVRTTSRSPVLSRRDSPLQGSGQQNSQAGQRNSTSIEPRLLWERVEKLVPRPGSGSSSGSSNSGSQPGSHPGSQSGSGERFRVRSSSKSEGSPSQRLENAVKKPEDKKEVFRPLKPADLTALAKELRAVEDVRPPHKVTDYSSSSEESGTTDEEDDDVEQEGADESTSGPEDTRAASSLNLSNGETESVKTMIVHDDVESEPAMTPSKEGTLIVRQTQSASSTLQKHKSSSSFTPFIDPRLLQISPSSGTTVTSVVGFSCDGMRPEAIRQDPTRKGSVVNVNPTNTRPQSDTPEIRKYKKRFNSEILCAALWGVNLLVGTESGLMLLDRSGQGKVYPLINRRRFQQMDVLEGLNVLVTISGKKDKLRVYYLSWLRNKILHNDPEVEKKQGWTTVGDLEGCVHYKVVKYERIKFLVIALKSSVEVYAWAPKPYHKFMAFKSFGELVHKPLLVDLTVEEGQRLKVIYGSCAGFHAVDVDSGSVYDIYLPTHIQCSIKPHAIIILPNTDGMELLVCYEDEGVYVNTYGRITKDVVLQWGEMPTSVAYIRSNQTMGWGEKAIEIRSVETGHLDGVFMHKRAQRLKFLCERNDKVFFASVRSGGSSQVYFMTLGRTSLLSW
# ZAP70, sequence (P43403 whole entry): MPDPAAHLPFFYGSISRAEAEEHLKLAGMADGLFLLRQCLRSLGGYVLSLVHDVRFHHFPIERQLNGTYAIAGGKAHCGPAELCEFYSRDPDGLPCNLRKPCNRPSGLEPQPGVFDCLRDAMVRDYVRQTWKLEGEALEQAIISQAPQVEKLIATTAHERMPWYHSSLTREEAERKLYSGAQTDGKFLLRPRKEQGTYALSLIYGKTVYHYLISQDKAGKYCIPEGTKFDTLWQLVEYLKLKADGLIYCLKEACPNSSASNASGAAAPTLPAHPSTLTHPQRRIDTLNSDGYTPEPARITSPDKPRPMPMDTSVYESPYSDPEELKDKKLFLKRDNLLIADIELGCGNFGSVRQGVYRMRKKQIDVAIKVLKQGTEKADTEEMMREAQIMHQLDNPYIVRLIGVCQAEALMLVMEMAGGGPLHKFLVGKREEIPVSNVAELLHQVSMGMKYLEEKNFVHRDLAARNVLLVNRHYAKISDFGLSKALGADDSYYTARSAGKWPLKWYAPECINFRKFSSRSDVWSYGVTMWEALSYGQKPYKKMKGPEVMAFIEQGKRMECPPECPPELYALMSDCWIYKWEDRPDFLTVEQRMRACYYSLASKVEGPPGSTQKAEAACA
# EPHA5, sequence (P54756 25-1037): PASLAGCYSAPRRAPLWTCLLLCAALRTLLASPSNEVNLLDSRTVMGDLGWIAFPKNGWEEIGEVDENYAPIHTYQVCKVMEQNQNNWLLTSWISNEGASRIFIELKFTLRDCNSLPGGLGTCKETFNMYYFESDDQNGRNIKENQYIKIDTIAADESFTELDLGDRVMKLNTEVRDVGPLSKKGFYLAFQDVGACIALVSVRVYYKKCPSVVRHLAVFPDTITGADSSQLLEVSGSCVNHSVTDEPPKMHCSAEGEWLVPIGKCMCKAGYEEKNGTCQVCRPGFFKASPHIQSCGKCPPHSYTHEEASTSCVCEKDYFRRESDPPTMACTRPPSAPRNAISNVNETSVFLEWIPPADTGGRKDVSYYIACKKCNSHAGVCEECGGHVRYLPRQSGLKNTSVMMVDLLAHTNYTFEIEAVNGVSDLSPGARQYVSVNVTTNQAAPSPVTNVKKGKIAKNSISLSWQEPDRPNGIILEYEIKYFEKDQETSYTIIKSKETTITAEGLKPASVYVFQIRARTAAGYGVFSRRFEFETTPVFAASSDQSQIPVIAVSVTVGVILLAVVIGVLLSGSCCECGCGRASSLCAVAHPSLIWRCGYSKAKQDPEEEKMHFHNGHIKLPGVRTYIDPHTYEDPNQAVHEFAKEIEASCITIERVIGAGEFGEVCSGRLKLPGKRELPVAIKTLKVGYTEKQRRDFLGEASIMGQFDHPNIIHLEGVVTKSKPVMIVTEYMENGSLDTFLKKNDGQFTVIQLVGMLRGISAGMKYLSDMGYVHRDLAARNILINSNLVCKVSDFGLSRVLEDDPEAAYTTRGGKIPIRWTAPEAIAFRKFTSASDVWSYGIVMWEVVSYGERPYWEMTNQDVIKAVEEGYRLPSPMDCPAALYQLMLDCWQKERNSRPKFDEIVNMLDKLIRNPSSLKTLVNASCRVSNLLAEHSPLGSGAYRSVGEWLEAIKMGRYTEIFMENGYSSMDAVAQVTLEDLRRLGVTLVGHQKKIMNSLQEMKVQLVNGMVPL
# AURKC, sequence (Q9UQB9 whole entry): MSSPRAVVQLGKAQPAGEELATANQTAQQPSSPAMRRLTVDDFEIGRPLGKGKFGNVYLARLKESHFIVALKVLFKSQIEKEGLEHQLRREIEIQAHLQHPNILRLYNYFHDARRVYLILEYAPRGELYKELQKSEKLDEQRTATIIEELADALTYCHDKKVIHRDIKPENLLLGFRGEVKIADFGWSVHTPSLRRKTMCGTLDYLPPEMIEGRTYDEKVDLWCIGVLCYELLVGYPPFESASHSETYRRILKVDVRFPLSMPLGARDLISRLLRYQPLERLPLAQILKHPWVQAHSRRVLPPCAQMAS
compound,measurement,setting,value
C=CC(=O)Nc1ccc(OC)c(Nc2cc(-c3[nH]c(CC)nc3-c3cccc(NC(=O)c4cccc5c4NC(=O)c4ccccc4N5)c3)ccn2)c1 [Compound 4],POC,[1],100% of control
same,POC,[2],100% of control
same,POC,[3],85% of control
same,POC,[4],87% of control
same,POC,[5],63% of control
same,POC,[6],88% of control
same,POC,[7],31% of control
same,POC,[8],100% of control
same,POC,[9],98% of control
same,POC,[10],0% of control
same,POC,[11],67% of control
same,POC,[12],97% of control
same,POC,[13],6.1% of control
same,POC,[14],46% of control
same,POC,[15],0% of control
same,POC,[16],14% of control
same,POC,[17],97% of control
same,POC,[18],100% of control
same,POC,[19],88% of control
same,POC,[20],97% of control
same,POC,[21],17% of control
same,POC,[22],99% of control
same,POC,[23],100% of control
same,POC,[24],100% of control
same,POC,[25],100% of control
same,POC,[26],100% of control
same,POC,[27],74% of control
same,metabolic stability in liver microsomes,[28],metabolically stable
